Data from ChEMBL document CHEMBL1201862, “PubChem BioAssay data set” (2004).
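Interpolation was linear, between the two tested concentrations surrounding the appropriate level; five concentrations were tested over 48 hours in 96-well plates. GI50 = concentration required for 50% inhibition of growth.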 Calls of active or inactive are those of the source. No stated cut-off is given here; in the data, active = GI50 up to about 1.1 µM and inactive = higher.

What was measured:
Test in all cases: NCI-60 cell line screen, 48 h
SR = tested on: SR
NCI-H460 = tested on: NCI-H460
NCI-H23 = tested on: NCI-H23
786-0 = tested on: 786-0
HCT-15 = tested on: HCT-15
M14 = tested on: M14
HCT-116 = tested on: HCT-116
TK-10 = tested on: TK-10
IGROV-1 = tested on: IGROV-1
OVCAR-8 = tested on: OVCAR-8
SNB-75 = tested on: SNB-75
Malme-3M = tested on: Malme-3M
ACHN = tested on: ACHN
SF-295 = tested on: SF-295
UACC-62 = tested on: UACC-62
KM12 = tested on: KM12
SF-268 = tested on: SF-268

Structure (SMILES)	GI50 (SR)	GI50 (NCI-H460)	GI50 (NCI-H23)	GI50 (786-0)	GI50 (HCT-15) [µM]	GI50 (M14)	GI50 (HCT-116)	GI50 (TK-10)	GI50 (IGROV-1)	GI50 (OVCAR-8)	GI50 (SNB-75)	GI50 (Malme-3M)	GI50 (ACHN)	GI50 (SF-295)	GI50 (UACC-62)	GI50 (KM12)	GI50 (SF-268)
O=C(NCc1ccncc1)C1COc2cc(-c3cc(=O)c4ccccc4o3)ccc2O1 (stereo not given)	> 100 µM (inactive)	> 100 µM (inactive)	> 100 µM (inactive)	> 100 µM (inactive)	> 100	> 100 µM (inactive)	> 100 µM (inactive)	> 100 µM (inactive)	> 100 µM (inactive)	> 100 µM (inactive)	38.1 µM (inactive)	> 100 µM (inactive)	> 100 µM (inactive)	> 100 µM (inactive)	> 100 µM (inactive)	> 100 µM (inactive)	
CC(=O)Nc1ccccc1-c1nc2ccccc2nc1-c1ccccc1	> 100 µM (inactive)	> 100 µM (inactive)	> 100 µM (inactive)	> 100 µM (inactive)	> 100	> 100 µM (inactive)	> 100 µM (inactive)		> 100 µM (inactive)	> 100 µM (inactive)	69.7 µM (inactive)		> 100 µM (inactive)	> 100 µM (inactive)	> 100 µM (inactive)	> 100 µM (inactive)	
CCCCCCC(=O)C/C(CCC(=O)N(Cc1ccccc1)Cc1ccccc1)=N\NC(N)=O	> 100 µM (inactive)	> 100 µM (inactive)	> 100 µM (inactive)	> 100 µM (inactive)	> 100	> 100 µM (inactive)	> 100 µM (inactive)	> 100 µM (inactive)	> 100 µM (inactive)	> 100 µM (inactive)	> 100 µM (inactive)	> 100 µM (inactive)	> 100 µM (inactive)	> 100 µM (inactive)	> 100 µM (inactive)	> 100 µM (inactive)	> 100 µM (inactive)
N#C/C(=C\c1ccccc1F)C(=O)c1ccccc1	> 100 µM (inactive)		> 100 µM (inactive)	> 100 µM (inactive)	> 100	> 100 µM (inactive)	> 100 µM (inactive)	> 100 µM (inactive)	> 100 µM (inactive)	> 100 µM (inactive)		> 100 µM (inactive)	> 100 µM (inactive)	> 100 µM (inactive)	> 100 µM (inactive)	> 100 µM (inactive)	> 100 µM (inactive)
CCOC(=O)C1CCCCN1C(=O)OCc1ccccc1 (stereo not given)	> 100 µM (inactive)	> 100 µM (inactive)	78.3 µM (inactive)	> 100 µM (inactive)	> 100	> 100 µM (inactive)	> 100 µM (inactive)	> 100 µM (inactive)		> 100 µM (inactive)	> 100 µM (inactive)		> 100 µM (inactive)	> 100 µM (inactive)	> 100 µM (inactive)	> 100 µM (inactive)	> 100 µM (inactive)
CC(=O)Nc1ccc(-c2nnc(SCC(=O)Nc3ccc([N+](=O)[O-])cc3)o2)cc1	3.18 µM (inactive)	15.2 µM (inactive)	12.2 µM (inactive)	11.3 µM (inactive)	12.9	13.9 µM (inactive)	12.5 µM (inactive)	14.6 µM (inactive)	11 µM (inactive)	14.6 µM (inactive)	13.2 µM (inactive)	14 µM (inactive)	15.4 µM (inactive)	14.1 µM (inactive)	9.84 µM (inactive)	14.5 µM (inactive)	14.1 µM (inactive)
CC1(C2COC(=O)C2)SCCCS1 (stereo not given)	> 100 µM (inactive)	> 100 µM (inactive)	> 100 µM (inactive)	> 100 µM (inactive)	> 100	> 100 µM (inactive)	> 100 µM (inactive)	> 100 µM (inactive)	> 100 µM (inactive)	> 100 µM (inactive)	> 100 µM (inactive)	> 100 µM (inactive)	> 100 µM (inactive)	> 100 µM (inactive)	> 100 µM (inactive)	98.4 µM (inactive)	> 100 µM (inactive)
CCN(CC)C(=O)c1c(Cl)cc(N(CC)CC)oc1=O	> 100 µM (inactive)	> 100 µM (inactive)	> 100 µM (inactive)	> 100 µM (inactive)	> 100	> 100 µM (inactive)	> 100 µM (inactive)	> 100 µM (inactive)	> 100 µM (inactive)	> 100 µM (inactive)	> 100 µM (inactive)	> 100 µM (inactive)	> 100 µM (inactive)	> 100 µM (inactive)	> 100 µM (inactive)	> 100 µM (inactive)	> 100 µM (inactive)
CCOc1ccccc1NC(=O)C(=O)CC(=O)c1sc(Nc2nnc(-c3ccc(Cl)c(Cl)c3)o2)nc1C	> 100 µM (inactive)	51.8 µM (inactive)	> 100 µM (inactive)	> 100 µM (inactive)	> 100	> 100 µM (inactive)	> 100 µM (inactive)	> 100 µM (inactive)	> 100 µM (inactive)	> 100 µM (inactive)	> 100 µM (inactive)	> 100 µM (inactive)	> 100 µM (inactive)	> 100 µM (inactive)	> 100 µM (inactive)	> 100 µM (inactive)	> 100 µM (inactive)
CCCCCCCCCCCC(=O)OCCOCCOCCOCCOCCOCc1ccc(OC)cc1	> 100 µM (inactive)	> 100 µM (inactive)	> 100 µM (inactive)	> 100 µM (inactive)	> 100	> 100 µM (inactive)	> 100 µM (inactive)	> 100 µM (inactive)	88.5 µM (inactive)	> 100 µM (inactive)	> 100 µM (inactive)	> 100 µM (inactive)	> 100 µM (inactive)	> 100 µM (inactive)	> 100 µM (inactive)	> 100 µM (inactive)	> 100 µM (inactive)
CC(=O)OCC1OC(n2c(-c3ccc(N)cc3)cc(-c3ccco3)c(C#N)c2=O)C(OC(C)=O)C(OC(C)=O)C1OC(C)=O (stereo not given)	> 50 µM (inactive)		26 µM (inactive)	14.2 µM (inactive)	> 50	> 50 µM (inactive)	2.3 µM (inactive)	> 50 µM (inactive)	45 µM (inactive)	5.87 µM (inactive)	> 50 µM (inactive)	> 50 µM (inactive)	> 50 µM (inactive)	28 µM (inactive)	37.2 µM (inactive)	7.29 µM (inactive)	11.5 µM (inactive)
C#CCOCn1cnc2c(Cl)ncnc21	50.9 µM (inactive)	> 100 µM (inactive)	> 100 µM (inactive)	> 100 µM (inactive)		> 100 µM (inactive)	> 100 µM (inactive)	> 100 µM (inactive)	> 100 µM (inactive)	> 100 µM (inactive)	> 100 µM (inactive)	> 100 µM (inactive)	> 100 µM (inactive)	> 100 µM (inactive)	> 100 µM (inactive)	> 100 µM (inactive)	> 100 µM (inactive)
COC1(OC)CC2C(=O)N(Cc3ccccc3)C1C=C2S(=O)(=O)c1ccccc1 (stereo not given)	15 µM (inactive)	18.2 µM (inactive)	18 µM (inactive)	19.7 µM (inactive)		16.1 µM (inactive)	13.8 µM (inactive)	25.1 µM (inactive)	32.9 µM (inactive)	17.9 µM (inactive)	28.8 µM (inactive)	20.4 µM (inactive)	20.8 µM (inactive)	28.5 µM (inactive)	16.7 µM (inactive)	17.4 µM (inactive)	37 µM (inactive)
